Measurements as given in patent EP4763845A1, “CYANO AROMATIC RING DERIVATIVE AND PHARMACEUTICAL USE THEREOF” (Haisco Pharmaceutical Group Co., Ltd., priority 2023, dated 2025).

Each compound was assayed against T1, AR protein (Homo sapiens, UniProt P10275) (assay: Detection of AR degradation in VCaP cells (automated western blot)). Conditions: AR protein in VCaP cells, concentration of 30 nM, 24 hours.
T1 construct: VCap is a human prostate cancer cell line purchased from ATCC; host or cells: VCaP human prostate cancer cells
T1 sequence (P10275 1-920): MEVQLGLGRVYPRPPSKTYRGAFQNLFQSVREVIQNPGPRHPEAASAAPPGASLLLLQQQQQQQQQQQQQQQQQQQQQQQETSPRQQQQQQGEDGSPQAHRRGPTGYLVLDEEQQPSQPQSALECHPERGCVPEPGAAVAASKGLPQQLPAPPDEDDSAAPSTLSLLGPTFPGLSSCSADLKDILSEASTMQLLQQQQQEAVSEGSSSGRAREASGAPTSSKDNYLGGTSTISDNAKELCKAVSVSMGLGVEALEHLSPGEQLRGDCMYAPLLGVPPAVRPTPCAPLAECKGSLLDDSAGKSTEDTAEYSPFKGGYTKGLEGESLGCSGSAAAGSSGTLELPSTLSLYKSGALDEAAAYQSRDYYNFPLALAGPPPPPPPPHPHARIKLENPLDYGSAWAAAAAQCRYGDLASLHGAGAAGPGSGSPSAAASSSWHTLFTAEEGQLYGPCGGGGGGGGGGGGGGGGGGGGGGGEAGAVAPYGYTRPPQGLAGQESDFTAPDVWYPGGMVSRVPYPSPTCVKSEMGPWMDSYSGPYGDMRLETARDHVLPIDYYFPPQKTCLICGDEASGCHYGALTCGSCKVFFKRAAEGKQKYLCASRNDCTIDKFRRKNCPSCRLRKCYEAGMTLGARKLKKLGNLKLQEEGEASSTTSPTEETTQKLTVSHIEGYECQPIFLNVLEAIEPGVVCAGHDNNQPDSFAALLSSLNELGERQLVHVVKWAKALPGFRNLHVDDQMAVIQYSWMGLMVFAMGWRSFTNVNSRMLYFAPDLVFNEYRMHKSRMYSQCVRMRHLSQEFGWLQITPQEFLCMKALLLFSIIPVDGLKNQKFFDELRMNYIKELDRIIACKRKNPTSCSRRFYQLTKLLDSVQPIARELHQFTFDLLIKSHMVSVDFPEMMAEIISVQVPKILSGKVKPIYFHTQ
Assay type: cell-based
Description: VCap is a human prostate cancer cell line purchased from ATCC and cultured under the following conditions: DMEM + 10% FBS + 1% penicillin-streptomycin solution. The cells were cultured in a 37°C, 5% CO2 incubator. The cells were seeded in a 6-well plate, with 5 × 10^5 cells/well. After seeding, compounds at various concentrations were added, and the plate was incubated for 24 hours in the 37°C, 5% CO2 incubator. Following incubation, the cells were harvested and RIPA lysis buffer (beyotime, Cat. P0013B) was added. The cells were lysed on ice for 15 minutes and centrifuged at 12,000 rpm at 4°C for 10 minutes. The supernatant protein samples were collected and the protein was quantified using the BCA kit (Beyotime, Cat. P0009). Then the protein was diluted to 0.25 mg/mL. The expressions of AR (CST, Cat.5153S) and the internal reference β-actin (CST, Cat. 3700S) were detected using a fully automated western blot quantitative analyser (Proteinsimple). Using the "Compass for SW" software, the relative peak area of AR was calculated when the internal reference area was 10,000. The proportion of AR relative to the solvent control group at various drug concentrations was calculated according to Equation (1), where ARtreat represents the relative peak area of the compound-treated group, and ARsolvent represents the relative peak area of the solvent control group. The processed data obtained from Equation (1) were analysed using GraphPad Prism 8.3.0 software, and the DC50 value was calculated using a four-parameter nonlinear regression model. The degradation rate at a specified concentration was determined as 100-AR%. AR% = ARtreat/ ARsolvent × 100% [formula]

| Degradation rate % [%] | Structure (SMILES) |
| --- | --- |
| >70 | CC1(C)[C@H](NC(=O)c2ccc(N3CCC(CN4CCN5c6cc(F)c(C7CCC(=O)NC7=O)cc6CC[C@@H]5C4)CC3)cc2)C(C)(C)[C@H]1Oc1ccc(C#N)c(C2CC2)c1 (stereo partly shown) [Compound 117] |
| >70 | COc1cc(O[C@H]2C(C)(C)[C@H](NC(=O)c3ccc(N4CCC(CN5CCN6c7ncc(C8CCC(=O)NC8=O)cc7CC[C@@H]6C5)CC4)cc3)C2(C)C)ccc1C#N (stereo partly shown) [Compound 93] |
| >70 | COc1cc(O[C@H]2C(C)(C)[C@H](NC(=O)c3ccc(N4CCC5(CC4)CC(N4CCN6c7cc(F)c(C8CCC(=O)NC8=O)cc7CC[C@H]6C4)C5)cc3)C2(C)C)ccc1C#N (stereo partly shown) [Trifluoroacetate of compound 121] |
| >70 | CC1(C)[C@H](NC(=O)c2ccc(N3CCC(CN4CCN5c6cc(F)c(C(=O)N[C@H]7CCC(=O)NC7=O)cc6CC[C@@H]5C4)CC3)cc2)C(C)(C)[C@H]1Oc1ccc(C#N)c(C2CC2)c1 [Compound 119] |

Same assay, conditions: degradation of AR protein in VCaP cells, 24 hours incubation; read-out: DC50

| Structure (SMILES) | DC50 [nM] |
| --- | --- |
| Cc1cc(O[C@H]2C(C)(C)[C@H](NC(=O)c3ccc(N4CCC(CN5CCN6c7cc(F)c(C8CCC(=O)NC8=O)cc7CC[C@H]6C5)CC4)cc3)C2(C)C)cc(C)c1C#N (stereo partly shown) [Compound 78] | < 100 |
| CC1(C)[C@H](NC(=O)c2ccc(N3CCC(CN4CCN5c6cc(F)c(C7CCC(=O)NC7=O)cc6CC[C@H]5C4)CC3)cc2)C(C)(C)[C@H]1Oc1ccc(C#N)c(Cl)c1 (stereo partly shown) [Compound 49] | < 100 |
| COc1cc(O[C@H]2C(C)(C)[C@H](NC(=O)c3ccc(N4CCC(CN5CCN6c7cc(F)c(N8CCC(=O)NC8=O)cc7CC[C@@H]6C5)CC4)nn3)C2(C)C)ccc1C#N [Trifluoroacetate of compound 62] | < 100 |
| Cc1cc(O[C@H]2C(C)(C)[C@H](NC(=O)c3ccc(N4CCC(CN5CCN6c7cc(F)c(N8CCC(=O)NC8=O)cc7CC[C@@H]6C5)CC4)cc3)C2(C)C)cc(C)c1C#N [Compound 82] | < 100 |
| COc1cc(O[C@H]2C(C)(C)[C@H](NC(=O)c3ccc(N4CCC5(CC4)CC(N4CCN6c7cc(F)c(C(=O)N[C@H]8CCC(=O)NC8=O)cc7CC[C@H]6C4)C5)cc3)C2(C)C)ccc1C#N [Trifluoroacetate of compound 18] | < 100 |
| COc1cc(O[C@H]2C(C)(C)[C@H](NC(=O)c3ccc(N4CCC(N5CCN6c7cc(F)c(C(=O)N[C@@H]8CCC(=O)NC8=O)cc7CC[C@H]6C5)CC4)cc3)C2(C)C)ccc1C#N [Trifluoroacetate of compound 25] | < 100 |
| CC1(C)[C@H](NC(=O)c2ccc(N3CCC(CN4CCN5c6cc(F)c(N7CCC(=O)NC7=O)cc6CC[C@@H]5C4)CC3)cc2)C(C)(C)[C@H]1Oc1ccc(C#N)c(Cl)c1 [Compound 50] | < 100 |
| CC1(C)[C@H](NC(=O)c2ccc(N3CCC4(CC3)CC(CN3CCN5c6cc(F)c(C(=O)N[C@H]7CCC(=O)NC7=O)cc6CC[C@@H]5C3)C4)cc2)C(C)(C)[C@H]1Oc1ccc(C#N)c(Cl)c1 [Compound 58] | < 100 |
| CC1(C)[C@H](NC(=O)c2ccc(N3CCC(CN4CCN5c6cc(F)c(N7CCC(=O)NC7=O)cc6CC[C@H]5C4)CC3)cc2)C(C)(C)[C@H]1Oc1ccc(C#N)c(Cl)c1 [Compound 51] | < 100 |
| CC1(C)[C@H](NC(=O)c2ccc(N3CCC4(CC3)CC(CN3CCN5c6cc(F)c(N7CCC(=O)NC7=O)cc6CC[C@@H]5C3)C4)cc2)C(C)(C)[C@H]1Oc1ccc(C#N)c(Cl)c1 [Compound 56] | < 100 |
| COc1cc(O[C@H]2C(C)(C)[C@H](NC(=O)c3ccc(N4CCC(CN5CCN6c7cc(F)c(C(=O)N[C@@H]8CCC(=O)NC8=O)cc7CC[C@H]6C5)CC4)cc3)C2(C)C)ccc1C#N [Compound 14] | < 100 |
| Cc1cc(O[C@H]2C(C)(C)[C@H](NC(=O)c3ccc(N4CCC(CN5CCN6c7cc(F)c(N8CCC(=O)NC8=O)cc7CC[C@H]6C5)CC4)cc3)C2(C)C)cc(C)c1C#N [Compound 80] | < 100 |
| CC1(C)[C@H](NC(=O)c2ccc(N3CCC4(CC3)CC(CN3CCN5c6cc(F)c(C7CCC(=O)NC7=O)cc6CC[C@H]5C3)C4)cc2)C(C)(C)[C@H]1Oc1ccc(C#N)c(Cl)c1 (stereo partly shown) [Compound 55] | < 100 |

Continued, values first:

| DC50 [nM] | Structure (SMILES) |
| --- | --- |
| < 100 | [2H]C([2H])([2H])Oc1cc(O[C@H]2C(C)(C)[C@H](NC(=O)c3ccc(N4CCC5(CC4)CC(CN4CCN6c7cc(F)c(N8CCC(=O)NC8=O)cc7CC[C@@H]6C4)C5)cc3)C2(C)C)ccc1C#N [Trifluoroacetate of compound 44] |
| < 100 | COc1cc(O[C@H]2C(C)(C)[C@H](NC(=O)c3ccc(N4CCC(N5CCN6c7cc(F)c(C8CCC(=O)NC8=O)cc7CC[C@@H]6C5)CC4)cc3)C2(C)C)ccc1C#N (stereo partly shown) [Trifluoroacetate of compound 20] |
| < 100 | COc1cc(O[C@H]2C(C)(C)[C@H](NC(=O)c3ccc(N4CCC5(CC4)CC(CN4CCN6c7cc(F)c(C(=O)N[C@H]8CCC(=O)NC8=O)cc7CC[C@@H]6C4)C5)cc3)C2(C)C)ccc1C#N [Trifluoroacetate of compound 5] |
| < 100 | COc1cc(O[C@H]2C(C)(C)[C@H](NC(=O)c3ccc(N4CCC5(CC4)CC(CN4CCN6c7cc(F)c(C8CCC(=O)NC8=O)cc7CC[C@H]6C4)C5)cc3)C2(C)C)ccc1C#N (stereo partly shown) [Trifluoroacetate of compound 10] |
| < 100 | CC1(C)[C@H](NC(=O)c2ccc(N3CCC4(CC3)CC(CN3CCN5c6cc(F)c(C7CCC(=O)NC7=O)cc6CC[C@@H]5C3)C4)cc2)C(C)(C)[C@H]1Oc1ccc(C#N)c2ncccc12 (stereo partly shown) [Compound 72] |
| < 100 | CC1(C)[C@H](NC(=O)c2ccc(N3CCC4(CC3)CC(CN3CCN5c6cc(F)c(C7CCC(=O)NC7=O)cc6CC[C@@H]5C3)C4)cc2)C(C)(C)[C@H]1Oc1ccc(C#N)c(Cl)c1 (stereo partly shown) [Compound 54] |
| < 100 | [2H]C([2H])([2H])Oc1cc(O[C@H]2C(C)(C)[C@H](NC(=O)c3ccc(N4CCC5(CC4)CC(CN4CCN6c7cc(F)c(C8CCC(=O)NC8=O)cc7CC[C@@H]6C4)C5)cc3)C2(C)C)ccc1C#N (stereo partly shown) [Compound 42] |
| < 100 | COc1cc(O[C@H]2C(C)(C)[C@H](NC(=O)c3ccc(N4CCC(CN5CCN6c7ncc(C8CCC(=O)NC8=O)cc7CC[C@H]6C5)CC4)cc3)C2(C)C)ccc1C#N (stereo partly shown) [Compound 83] |
| < 100 | COc1cc(O[C@H]2C(C)(C)[C@H](NC(=O)c3ccc(N4CCC(N5CCN6c7cc(F)c(C(=O)N[C@H]8CCC(=O)NC8=O)cc7CC[C@H]6C5)CC4)cc3)C2(C)C)ccc1C#N [Trifluoroacetate of compound 24] |
| < 100 | COc1cc(O[C@H]2C(C)(C)[C@H](NC(=O)c3ccc(N4CCC(N5CCN6c7cc(F)c(C8CCC(=O)NC8=O)cc7CC[C@H]6C5)CC4)cc3)C2(C)C)ccc1C#N (stereo partly shown) [Trifluoroacetate of compound 21] |
| < 100 | [2H]C([2H])([2H])Oc1cc(O[C@H]2C(C)(C)[C@H](NC(=O)c3ccc(N4CCC5(CC4)CC(CN4CCN6c7cc(F)c(C8CCC(=O)NC8=O)cc7CC[C@H]6C4)C5)cc3)C2(C)C)ccc1C#N (stereo partly shown) [Compound 43] |
| < 100 | COc1cc(O[C@H]2C(C)(C)[C@H](NC(=O)c3ccc(N4CCC(N5CCN6c7cc(F)c(C(=O)N[C@H]8CCC(=O)NC8=O)cc7CC[C@@H]6C5)CC4)cc3)C2(C)C)ccc1C#N [Trifluoroacetate of compound 22] |
| < 100 | COc1cc(O[C@H]2C(C)(C)[C@H](NC(=O)c3ccc(N4CCC5(CC4)CC(N4CCN6c7cc(F)c(N8CCC(=O)NC8=O)cc7CC[C@H]6C4)C5)cc3)C2(C)C)ccc1C#N [Trifluoroacetate of compound 84] |
| < 100 | COc1cc(O[C@H]2C(C)(C)[C@H](NC(=O)c3ccc(N4CCC5(CC4)CC(CN4CCN6c7cc(F)c(C8CCC(=O)NC8=O)cc7CC[C@@H]6C4)C5)cc3)C2(C)C)ccc1C#N (stereo partly shown) [Trifluoroacetate of compound 9] |
